Series [1] can be described thus: Change over time in stability in PBS (phosphate buffer). Format: physicochemical. Conditions: 100 μg/ml in PBS, 37° C. The procedure: Vinaxanthone (SPF-3059-5) and SPF-3059-1 were each dissolved in PBS (Dulbecco's PBS(-)) to a concentration of 100 μg/ml. The obtained solutions were preserved at 37° C., and the amount of the agent remaining in the solution was quantified by HPLC in individual time points from initiation of the preservation until 4 weeks after initiation of the preservation, so that a change over time in the remaining percentages was examined. The same HPLC conditions as those of Example 10 were applied.

The target of series [2] is T1, mouse semaphorin 3A (Sema3A) (Mus musculus, UniProt O08665).
T1 sequence (O08665 21-772): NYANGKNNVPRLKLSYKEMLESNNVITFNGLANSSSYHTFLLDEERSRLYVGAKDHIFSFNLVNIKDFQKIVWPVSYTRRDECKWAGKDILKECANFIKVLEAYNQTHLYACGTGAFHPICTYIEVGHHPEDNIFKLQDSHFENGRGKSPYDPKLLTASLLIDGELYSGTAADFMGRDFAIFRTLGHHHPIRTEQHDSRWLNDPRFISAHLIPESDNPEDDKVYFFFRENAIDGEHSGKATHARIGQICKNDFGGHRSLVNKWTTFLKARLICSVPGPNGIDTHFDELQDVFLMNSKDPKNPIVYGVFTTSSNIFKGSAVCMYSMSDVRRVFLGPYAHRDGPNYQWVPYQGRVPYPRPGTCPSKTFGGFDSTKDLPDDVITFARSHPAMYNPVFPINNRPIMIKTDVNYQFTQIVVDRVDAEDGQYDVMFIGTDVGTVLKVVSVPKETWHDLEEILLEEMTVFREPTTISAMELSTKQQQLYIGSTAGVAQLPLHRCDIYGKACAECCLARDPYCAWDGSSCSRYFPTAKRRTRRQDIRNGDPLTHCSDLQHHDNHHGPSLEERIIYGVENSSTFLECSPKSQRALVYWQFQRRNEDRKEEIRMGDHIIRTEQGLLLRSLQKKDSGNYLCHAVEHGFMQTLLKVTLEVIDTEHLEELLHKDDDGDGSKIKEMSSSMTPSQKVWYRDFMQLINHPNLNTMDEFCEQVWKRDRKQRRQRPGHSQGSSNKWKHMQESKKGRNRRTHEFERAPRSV
Description: Inhibitory activity on collapse activity of Sema3A (growth cone retraction, chicken embryo dorsal root ganglion). Format: cell-based. As to the method:
A polylysine-coated 96-well plate (Sumitomo Bakelite Co., Ltd.) was further coated with laminin (20 μg/ml laminin, room temperature, 1 hour). Then, 100 μl of a medium (F12 medium containing 10% fetal bovine serum, 20 ng/ml NGF, 100 units/ml penicillin, and 100 μg/ml streptomycin) was added to each well. Thereafter, a dorsal root ganglion excised from a 7-day-old chicken embryo was inoculated into the resulting well, and the obtained mixture was then cultured under conditions consisting of 16 to 20 hours, 5% CO2 and 37° C. Thereafter, the compounds described in Example 3 above were each added in different concentrations to the resulting culture, and the obtained mixture was then cultured for 1 hour. Thereafter, 2 units/ml mouse semaphorin 3A (Sema3A) was added to the culture, and the obtained mixture was further cultured for 1 hour. One hour after initiation of the culture, glutaraldehyde was added to the culture, such that it promptly could reach a final concentration of 1%. Then, the obtained mixture was then left at a room temperature for 15 minutes to fix a tissue section. Thereafter, the percentage of the retracted growth cone was measured under a microscope. A well, to which no Sema3A had been added, was used as a control. The percentage of growth cone retraction in a negative control group (to which neither the compound nor Sema3A was added) was defined as (A)%; the percentage of growth cone retraction in a positive control group (to which the compound had not been added but Sema3A was added) was defined as (B)%; and the percentage of growth cone retraction in a test group (to which both the compound and Sema3A were added) was defined as (C)%. The concentration of each compound that held the formula C=(A+B)/2 was defined as an IC50 value.

Series [3] in a line: Solubility (physicochemical properties of isolated compounds). The following applies: water, hexane, methanol, DMSO.
The nature of series [4]: Retention of vinaxanthone in corneal tissues after eye drops administration. In kind it is in vivo. Conditions: rabbit. The procedure:
Rabbits (Kbs: JW, healthy, male, body weight: 2.00 to 2.49 kg) were each administered with 50 μL of a PBS solution (0.12 M phosphate buffer (pH 7.4)) of vinaxanthone (0.5, 1.5 and 5.0 mg/mL) via eye drops administration onto the cornea of the right eye, and their eyes were then closed for 30 seconds. Thereafter, 0.5, 2, and 6 hours after completion of the administration, the rabbits were subjected to euthanasia, and the excised eyeballs were then washed with a normal saline. Thereafter, the cornea was collected from each eyeball. The cornea was homogenized, and vinaxanthone was then extracted therefrom. A change over time in the content and concentration of vinaxanthone in the corneal tissues was examined using HPLC.

Series [5] concerns corneal sensory nerve in corneal graft. Description: Mouse keratoplasty model: regeneration of nerve fibers in corneal graft, corneal sensitivity, corneal vascularization. The following applies: vs control group. In kind it is in vivo. The text has this:
In this experiment, there were used genetically modified mice (P0-Cre/Floxed-EGFP mouse), in which corneal parenchymal cells, corneal endothelial cells, and nerves expressed a type of fluorescent protein, Green Fluorescent Protein (GFP), in the cornea. Using these mice, corneal sensory nerve fibers traveling in the cornea can easily be observed by removing a layer of corneal endothelial cells.
The cornea derived from a syngeneic wild-type mouse was transplanted into each of the above-mentioned mice. Thereafter, 50 ul of vinaxanthone (which had been dissolved in Rinderon (1 mg/ml betamethasone sodium phosphate injection solution) to a concentration of 0.1 mg/mL) was administered to the mice via subconjunctival injection immediately after completion of the operation and then, every two days in a total of 11 times. Only a solvent containing no drugs was administered in the same amount as described above to a control group. The removal of the suture was conducted one week after completion of the operation. Three weeks after completion of the operation, corneal sensitivity was evaluated, the mice were then subjected to euthanasia, and eyeballs were then excised. A comparison was made regarding the regeneration of nerve fibers in the corneal graft. Corneal sensitivity was evaluated by measuring corneal sensitivity in the center of the corneal graft every week after completion of the operation, using a Cochet-Bonnet corneal esthesiometer. […]
Thereafter, a total of the lengths thereof were measured, and a comparison was then made between the vinaxanthone administration group and the control group.

Where two headings read alike, the source gives them in different places. Some results are limits rather than exact numbers.

Regarding `CC(=O)c1c(C)c(C(=O)C2COc3cc(O)c(O)c(C(=O)O)c3C2=O)cc2c(=O)c3c(C(=O)O)c(O)c(O)cc3oc12` (centres unmarked) [SPF-3059-1, reference compound], the “Time until decomposed in an almost total amount in PBS” value in series [1] is “approximately 1 week”.

With `CC(=O)c1cc2c(=O)c3cc(O)c(O)cc3oc2c(C(C)=O)c1-c1coc2cc(O)c(O)c(C(=O)O)c2c1=O` [SPF-3059-2], the IC50 in series [2] (2 units/ml mouse Sema3A, 7-day-old chicken embryo dorsal root ganglion, read-out: IC50 (inhibition of Sema3A-induced growth cone retraction)) is below 188 nM.

Take `CC(=O)c1cc2c(=O)c3c(C(=O)O)cc(O)cc3oc2c(C(C)=O)c1-c1coc2cc(O)c(O)c(C(=O)O)c2c1=O` [SPF-3059-4]: the Solubility result in series [3] is “Insoluble in water and hexane, soluble in methanol and DMSO”.

As for `CC(=O)c1cc2c(=O)c3c(C(=O)O)c(O)c(O)cc3oc2c(C(C)=O)c1-c1coc2cc(O)c(O)c(C(=O)O)c2c1=O` [SPF-3059-5, vinaxanthone], in series [1], the “Time for which the compound was stable in PBS” value was at least 4 weeks. Moreover, the “Remaining percentage in PBS” value in series [1] (until 4 weeks after initiation of the preservation, HPLC) is at least 96%. Besides, the concentration at 6 h in series [4] (male, Kbs: JW, cornea, topical, 5 mg/mL (50 μL eye drop), 50 μL eye drops of 5.0 mg/mL PBS solution, 6 hours after administration, read-out: Concentration of vinaxanthone retained in the cornea) is above 75 ng/mL. In addition, the “Time for which the concentration in the cornea considered necessary for the expression of drug effects was retained” value in series [4] (eye drop of 0.5 mg/mL solution) is 0.5 h. Also, in series [4] (eye drops 0.5, 1.5 and 5.0 mg/mL), the “Transfer into the corneal tissues” value is reported as “transferred into the corneal tissues in an applied concentration/dose dependent manner”. In addition, the IC50 in series [2] (as quoted in Example 2, converted from ng/mL, read-out: IC50 value obtained by the in vitro experiment (inhibitory activity on the collapse activity of Sema3A in Example 4) (converted)) was 130 nM; in series [2] (as quoted in Example 2, read-out: IC50 value obtained by the in vitro experiment (inhibitory activity on the collapse activity of Sema3A in Example 4) (converted)), 130 nM. Also, the “Regeneration of nerve fibers in the corneal graft (total length of regenerated fibers)” value in series [5] (50 ul of 0.1 mg/mL subconjunctival injection, every two days, 11 times, three weeks after operation, p<0.01) is recorded as “promoted”. For the same compound, in series [5] (three weeks after completion of the operation, p<0.01), the “Corneal sensitivity in the center of the corneal graft (Cochet-Bonnet corneal esthesiometer, blink reflection)” value was “improved”. Further, in series [5] (three weeks after operation, no significant difference), the “Vascularization into the corneal graft (total length of CD31-positive newly formed blood vessels)” value was “not promoted”.

In the case of `CC(=O)c1cc2c(=O)c3c(C(=O)O)c(O)c(O)cc3oc2c(C(C)=O)c1-c1coc2cc(O)cc(C(=O)O)c2c1=O` [SPF-3059-12], in series [3], the Solubility entry was “Insoluble in water and hexane, soluble in methanol and DMSO”.

For `CC(=O)c1cc2c(=O)c3c(C(=O)O)c(O)c(O)cc3oc2c(C(C)=O)c1-c1coc2cc(O)c(O)cc2c1=O` [SPF-3059-24], the Solubility result in series [3] is “Insoluble in water and hexane, soluble in methanol and DMSO”.

On to `CC(=O)c1cc2c(=O)c3c(C(=O)O)cc(O)cc3oc2c(C(C)=O)c1-c1coc2cc(O)c(O)cc2c1=O` [SPF-3059-25], for which the Solubility entry in series [3] is “Insoluble in water and hexane, soluble in methanol and DMSO”.

Consider `CC(=O)c1cc2c(=O)c3cc(O)c(O)cc3oc2c(C(C)=O)c1-c1coc2cc(O)c(O)cc2c1=O` [SPF-3059-26], for which the Solubility result in series [3] was “Insoluble in water and hexane, soluble in methanol and DMSO”.

The values above are taken from patent US20140018416A1, “THERAPEUTIC AGENT FOR CORNEAL SENSORY NERVE DAMAGE CONTAINING SEMAPHORIN INHIBITOR AS ACTIVE INGREDIENT” (DAINIPPON SUMITOMO PHARMA CO., LTD, priority 2011, published 2014).
